Results reported in patent US20220119354A1, “DIAMINO-SUBSTITUTED PYRIDINES AND PYRIMIDINES AS HERBICIDES” (FMC Corporation, priority 2019, published 2022).

Key:
Assay type in all cases: in vivo
kochia (Kochia scoparia) [1] = assay: Test A preemergence, kochia; conditions: 0 to 100 scale, 0 is no effect, 100 is complete control
Outline: (§1)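 Seeds sown in loam–sand blend received a directed soil spray of test chemical in non-phytotoxic solvent with surfactant (preemergence); postemergence plants at 2–10 cm, one- to two-leaf stage, were sprayed with the same formulation. Injury rated visually versus untreated controls after ~10 d in greenhouse, 0–100 scale.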

[2] = test system: ragweed (common ragweed, Ambrosia elatior); assay: Test A postemergence, ragweed; conditions: 0 to 100 scale, 0 no effect, 100 complete control
Outline: as §1

corn (Zea mays) = assay: Test A postemergence, corn; conditions: 0 to 100 scale, 0 no effect, 100 complete control
Outline: as §1

[3] = test system: ducksalad (Heteranthera limosa); assay: Test B flooded paddy test, ducksalad; conditions: Flood, 250 g ai/ha, applied to paddy water, 2-leaf stage, visual evaluation after 13 to 15 d
Outline: (§2)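 Each response is a visual 0–100 rating made against untreated controls, where 0 is no effect and 100 is complete control; a dash marks no result. Compound was dosed into 3 cm paddy water over 2-leaf plants, assessed after 13 to 15 d.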

[4] = test system: galium (catchweed bedstraw, Galium aparine); assay: Test A postemergence, galium; conditions: 0 to 100 scale, 0 no effect, 100 complete control
Outline: as §1

[5] = test system: pigweed (Amaranthus retroflexus); assay: Test A postemergence, pigweed; conditions: 0 to 100 scale, 0 no effect, 100 complete control
Outline: as §1

kochia (Kochia scoparia) [6] = assay: Test A postemergence, kochia; conditions: 0 to 100 scale, 0 no effect, 100 complete control
Outline: as §1

[7] = test system: barnyardgrass (Echinochloa crus-galli); assay: Test A postemergence, barnyardgrass; conditions: 0 to 100 scale, 0 no effect, 100 complete control
Outline: as §1

[8] = test system: pigweed (Amaranthus retroflexus); assay: Test A preemergence, pigweed; conditions: 0 to 100 scale, 0 is no effect, 100 is complete control
Outline: as §1

[9] = test system: barnyardgrass (Echinochloa crus-galli); assay: Test A preemergence, barnyardgrass; conditions: 0 to 100 scale, 0 is no effect, 100 is complete control
Outline: as §1

rice (Oryza sativa) = assay: Test B flooded paddy test, rice; conditions: Flood, 250 g ai/ha, applied to paddy water, 2-leaf stage, visual evaluation after 13 to 15 d
Outline: as §2

[10] = test system: ryegrass, Italian (Lolium multiflorum); assay: Test A preemergence, Italian ryegrass; conditions: 0 to 100 scale, 0 is no effect, 100 is complete control
Outline: as §1

[11] = test system: barnyardgrass (Echinochloa crus-galli); assay: Test B flooded paddy test, barnyardgrass; conditions: Flood, 250 g ai/ha, applied to paddy water, 2-leaf stage, visual evaluation after 13 to 15 d
Outline: as §2

[12] = test system: ragweed (common ragweed, Ambrosia elatior); assay: Test A preemergence, ragweed; conditions: 0 to 100 scale, 0 is no effect, 100 is complete control
Outline: as §1

[13] = test system: ryegrass, Italian (Lolium multiflorum); assay: Test A postemergence, Italian ryegrass; conditions: 0 to 100 scale, 0 no effect, 100 complete control
Outline: as §1

[14] = test system: foxtail, giant (Setaria faberii); assay: Test A preemergence, giant foxtail; conditions: 0 to 100 scale, 0 is no effect, 100 is complete control
Outline: as §1

[15] = test system: sedge, umbrella (small-flower umbrella sedge, Cyperus difformis); assay: Test B flooded paddy test, umbrella sedge; conditions: Flood, 250 g ai/ha, applied to paddy water, 2-leaf stage, visual evaluation after 13 to 15 d
Outline: as §2

[16] = test system: foxtail, giant (Setaria faberii); assay: Test A postemergence, giant foxtail; conditions: 0 to 100 scale, 0 no effect, 100 complete control
Outline: as §1

[17] = test system: wheat (Triticum aestivum); assay: Test A postemergence, wheat; conditions: 0 to 100 scale, 0 no effect, 100 complete control
Outline: as §1

[18] = test system: blackgrass (Alopecurus myosuroides); assay: Test A postemergence, blackgrass; conditions: 0 to 100 scale, 0 no effect, 100 complete control
Outline: as §1

Row | SMILES | Kochia plant response rating (kochia (Kochia scoparia) [1]; 125 g ai/ha) | Kochia plant response rating (kochia (Kochia scoparia) [1]; 500 g ai/ha) | Plant response rating, Ragweed ([2]; 125 g ai/ha) | Plant response rating, Ragweed ([2]; 500 g ai/ha) | Plant response rating, Corn (corn (Zea mays); 125 g ai/ha) | Plant response rating, Corn (corn (Zea mays); 500 g ai/ha) | Plant response rating, Ducksalad (0 to 100 scale, 0 is no effect, 100 is complete control) [3] | Plant response rating, Galium ([4]; 125 g ai/ha) | Plant response rating, Galium ([4]; 500 g ai/ha) | Plant response rating, Pigweed ([5]; 125 g ai/ha) | Plant response rating, Pigweed ([5]; 500 g ai/ha) | Plant response rating, Kochia (kochia (Kochia scoparia) [6]; 125 g ai/ha) | Plant response rating, Kochia (kochia (Kochia scoparia) [6]; 500 g ai/ha) | Plant response rating, Barnyardgrass ([7]; 125 g ai/ha) | Plant response rating, Barnyardgrass ([7]; 500 g ai/ha) | Pigweed plant response rating ([8]; 125 g ai/ha) | Pigweed plant response rating ([8]; 500 g ai/ha) | Barnyardgrass plant response rating ([9]; 125 g ai/ha) | Barnyardgrass plant response rating ([9]; 500 g ai/ha) | Plant response rating, Rice (0 to 100 scale, 0 is no effect, 100 is complete control) (rice (Oryza sativa)) | other results
1 | CC(Nc1ncc([N+](=O)[O-])c(N)n1)c1cc2ccccc2s1 (stereo not drawn) [Compound 99] | 0 | 90 | 20 | 80 | 0 | 30 | 0 | 20 | 70 | 50 | 70 | 50 | 80 | 30 | 70 | 40 | 100 | 40 | 90 | 0 | Ryegrass, Italian plant response rating ([10]; 125 g ai/ha): 20; Ryegrass, Italian plant response rating ([10]; 500 g ai/ha): 80; Plant response rating, Barnyardgrass (0 to 100 scale, 0 is no effect, 100 is complete control) [11]: 0; Ragweed plant response rating ([12]; 125 g ai/ha): 90; Ragweed plant response rating ([12]; 500 g ai/ha): 100; Plant response rating, Ryegrass, Italian ([13]; 125 g ai/ha): 0; Plant response rating, Ryegrass, Italian ([13]; 500 g ai/ha): 40; Foxtail, Giant plant response rating ([14]; 125 g ai/ha): 70; Foxtail, Giant plant response rating ([14]; 500 g ai/ha): 100; Plant response rating, Sedge, Umbrella (0 to 100 scale, 0 is no effect, 100 is complete control) [15]: 0; Plant response rating, Foxtail, Giant ([16]; 125 g ai/ha): 10; Plant response rating, Foxtail, Giant ([16]; 500 g ai/ha): 60; Plant response rating, Wheat ([17]; 125 g ai/ha): 0; Plant response rating, Wheat ([17]; 500 g ai/ha): 0; Plant response rating, Blackgrass ([18]; 125 g ai/ha): 0; Plant response rating, Blackgrass ([18]; 500 g ai/ha): 0
2 | CC(Nc1ncc(C(F)(F)F)c(N)n1)c1cc2c(Cl)cccc2o1 (stereo not drawn) [Compound 100] | 90 | 90 | 60 | 100 | 0 | 20 | 20 | 100 | 100 | 100 | 100 | 60 | 100 | 30 | 90 | 100 | 100 | 60 | 90 | 0 | Ryegrass, Italian plant response rating ([10]; 125 g ai/ha): 0; Ryegrass, Italian plant response rating ([10]; 500 g ai/ha): 90; Plant response rating, Barnyardgrass (0 to 100 scale, 0 is no effect, 100 is complete control) [11]: 45; Ragweed plant response rating ([12]; 125 g ai/ha): 50; Ragweed plant response rating ([12]; 500 g ai/ha): 100; Plant response rating, Ryegrass, Italian ([13]; 125 g ai/ha): 40; Plant response rating, Ryegrass, Italian ([13]; 500 g ai/ha): 70; Foxtail, Giant plant response rating ([14]; 125 g ai/ha): 90; Foxtail, Giant plant response rating ([14]; 500 g ai/ha): 100; Plant response rating, Sedge, Umbrella (0 to 100 scale, 0 is no effect, 100 is complete control) [15]: 35; Plant response rating, Foxtail, Giant ([16]; 125 g ai/ha): 20; Plant response rating, Foxtail, Giant ([16]; 500 g ai/ha): 50; Plant response rating, Wheat ([17]; 125 g ai/ha): 50; Plant response rating, Wheat ([17]; 500 g ai/ha): 40; Plant response rating, Blackgrass ([18]; 125 g ai/ha): 30; Plant response rating, Blackgrass ([18]; 500 g ai/ha): 70
